# System: Mitochondria-located protein genes
# Assay: DNA chip mRNA expression in yeast, mitochondria-located protein genes (Table 2)
# Type: cell-based, Saccharomyces cerevisiae S288C
# Settings: cells incubated two hours with the chemical substance
# How it was run: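 Ratios compare mRNA levels in stressed and control S. cerevisiae. Each toxicant was applied for two hours to log-phase cultures at 25° C. at a sub-lethal, growth-inhibiting level; fluorescent cDNA (Cy3- or Cy5-dUTP) was hybridized to a genome-wide yeast chip for over 12 h at 65° C.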
smiles,measurement,setting,value
"C[S+](C)[O-] [(15), dimethylsulfoxide]",The level of expressed mRNA in the presence of chemical substance/The level of expressed mRNA in the absence of chemical substance,yeast gene YBR029C,3.5
same,The level of expressed mRNA in the presence of chemical substance/The level of expressed mRNA in the absence of chemical substance,yeast gene YBR291C,0.5
same,The level of expressed mRNA in the presence of chemical substance/The level of expressed mRNA in the absence of chemical substance,yeast gene YDR529C,0.5
same,The level of expressed mRNA in the presence of chemical substance/The level of expressed mRNA in the absence of chemical substance,yeast gene YEL039C,0.4
same,The level of expressed mRNA in the presence of chemical substance/The level of expressed mRNA in the absence of chemical substance,yeast gene YGR029W,0.4
same,The level of expressed mRNA in the presence of chemical substance/The level of expressed mRNA in the absence of chemical substance,yeast gene YGR062C,0.5
same,The level of expressed mRNA in the presence of chemical substance/The level of expressed mRNA in the absence of chemical substance,yeast gene YGR076C,0.5
same,The level of expressed mRNA in the presence of chemical substance/The level of expressed mRNA in the absence of chemical substance,yeast gene YIL022W,2.9
same,The level of expressed mRNA in the presence of chemical substance/The level of expressed mRNA in the absence of chemical substance,yeast gene YIL094C,0.5
same,The level of expressed mRNA in the presence of chemical substance/The level of expressed mRNA in the absence of chemical substance,yeast gene YJL166W,0.5
same,The level of expressed mRNA in the presence of chemical substance/The level of expressed mRNA in the absence of chemical substance,yeast gene YKL085W,0.5
same,The level of expressed mRNA in the presence of chemical substance/The level of expressed mRNA in the absence of chemical substance,yeast gene YKL170W,0.8
same,The level of expressed mRNA in the presence of chemical substance/The level of expressed mRNA in the absence of chemical substance,yeast gene YKL194C,0.8
same,The level of expressed mRNA in the presence of chemical substance/The level of expressed mRNA in the absence of chemical substance,yeast gene YKR052C,0.5
same,The level of expressed mRNA in the presence of chemical substance/The level of expressed mRNA in the absence of chemical substance,yeast gene YLL041C,0.4
same,The level of expressed mRNA in the presence of chemical substance/The level of expressed mRNA in the absence of chemical substance,yeast gene YLR295C,0.5
same,The level of expressed mRNA in the presence of chemical substance/The level of expressed mRNA in the absence of chemical substance,yeast gene YLR395C,0.4
same,The level of expressed mRNA in the presence of chemical substance/The level of expressed mRNA in the absence of chemical substance,yeast gene YML110C,1.3
same,The level of expressed mRNA in the presence of chemical substance/The level of expressed mRNA in the absence of chemical substance,yeast gene YML120C,0.5
same,The level of expressed mRNA in the presence of chemical substance/The level of expressed mRNA in the absence of chemical substance,yeast gene YOR037W,0.9
same,The level of expressed mRNA in the presence of chemical substance/The level of expressed mRNA in the absence of chemical substance,yeast gene YOR374W,2.5

# Source: US8192962B2, “Processes for detecting toxic substances” (Daikin Industries, Ltd., priority 2001, dated 2012)
